Where two headings read alike, the source gives them in different places.
Legend:
Rhizoctonia solani = experiment: Bactericidal (fungicidal) activity by microdilution; format: cell-based
Leptosphaeria biglobosa = experiment: as above; format: cell-based
[1] = system: Fusarium oxysporum f. sp. Niveum; experiment: as above; format: cell-based
Aphiscraccivora = experiment: Insecticidal activity, dipping method; format: in vivo
Experimental: (§1) The insecticidal activity of sulfonyl functional compounds in the above embodiments were tested for agricultural biological functions, and the targets of insecticidal activity were Heliothis armigera, Plutella xylostella and Aphiscraccivora.
(§2) The insecticidal activity of sulfonyl functional compounds against Aphiscraccivora was tested by the method of dipping. Mother liquors were prepared by the sulfonyl functional compounds provided in the above embodiments dissolved in ethanol, respectively. 500 mg/L, 250 mg/L or 125 mg/L test solution could be prepared by diluting the different mother liquors with a liquor that contained 0.1 mL/L of emulgator (Tween-80). Every test solution was tested twice (Rep1 and Rep2). A blank control was set up, and the activity results were compared with the blank control. The mortality rate of 0˜30%, 30˜50%, 50-70%, 70˜90%, or 90˜100% could be orderly set as 0, 3, 5, 7, or 9.

[2] = system: Corynespora leaf spot of tomato; experiment: Bactericidal (fungicidal) activity by microdilution; format: cell-based
Magnaporthe oryzae = format: cell-based
Thanatephorus cucumeris = experiment: Bactericidal (fungicidal) activity by microdilution; format: cell-based
Botrytis cinerea = experiment: as above; format: cell-based
Pythium aphanidermatum = experiment: as above; format: cell-based
Heliothis armigera = experiment: Insecticidal activity, artificial feed surface coating method; format: in vivo; conditions: Helicoverpa armigera, read-out: Insecticidal activity (mortality rate grade) Heliothis armigera
Experimental: as §1
(§3) Using Heliothis armigera and Plutella xylostella as target, the insecticidal activities of sulfonyl functional compounds were tested by conventional artificial feed surface coating method. 300 microliters of artificial feed and 20 microliters of test solution were added to each well of the 24-well cell culture plate. The test solution was used in different concentrations and repeated twice (Rep1 and Rep2). The concentrations of the test solution were 500 mg/L, 250 mg/L and 125 mg/L, respectively.
as §2

Plutella xylostella = experiment: as above; format: in vivo; conditions: Plutella xylostella, read-out: Insecticidal activity (mortality rate grade) Plutella xylostella
Experimental: as §1, §3, §2

[3] = system: Verticillium dahliae.kieb.; experiment: Bactericidal (fungicidal) activity by microdilution; format: cell-based
[4] = system: Colletotrichum gloeobosporioids; experiment: as above; format: cell-based
Septoria nodorum Berk. = experiment: as above; format: cell-based
Alternaria kikuchiana = experiment: as above; format: cell-based
Fusarium culmorum = experiment: as above; format: cell-based

With `COC(=O)Nc1nc2ccccc2n1CCCS(=O)(=O)O` [III-1] the “Fungicidal activity (antibacterial rate grade) Rhizoctonia solani” value (Rhizoctonia solani; 12.5 mg/L) was 3 (The antibacterial rate of 0˜30% could be set as 3 if the growth of the target is normal and consistent with that of the blank control), the “Fungicidal activity (antibacterial rate grade) Rhizoctonia solani” value (Rhizoctonia solani; 25 mg/L) was 3 (The antibacterial rate of 0˜30% could be set as 3 if the growth of the target is normal and consistent with that of the blank control) and the “Fungicidal activity (antibacterial rate grade) Rhizoctonia solani” value (Rhizoctonia solani; 50 mg/L) was 3 (The antibacterial rate of 0˜30% could be set as 3 if the growth of the target is normal and consistent with that of the blank control). The “Fungicidal activity (antibacterial rate grade) Rhizoctonia solani” value (Rhizoctonia solani; 100 mg/L) was 3 (The antibacterial rate of 0˜30% could be set as 3 if the growth of the target is normal and consistent with that of the blank control), the “Fungicidal activity (antibacterial rate grade) Leptosphaeria biglobosa” value (Leptosphaeria biglobosa; 12.5 mg/L) was 9 (The antibacterial rate of 90˜100% could be set as 9 if the target has totally no growth) and the “Fungicidal activity (antibacterial rate grade) Leptosphaeria biglobosa” value (Leptosphaeria biglobosa; 25 mg/L) was 9 (The antibacterial rate of 90˜100% could be set as 9 if the target has totally no growth). For the same molecule, the “Fungicidal activity (antibacterial rate grade) Leptosphaeria biglobosa” value (Leptosphaeria biglobosa; 50 mg/L) was 9 (The antibacterial rate of 90˜100% could be set as 9 if the target has totally no growth), the “Fungicidal activity (antibacterial rate grade) Leptosphaeria biglobosa” value (Leptosphaeria biglobosa; 100 mg/L) was 9 (The antibacterial rate of 90˜100% could be set as 9 if the target has totally no growth) and the “Fungicidal activity (antibacterial rate grade) Fusarium oxysporum f. sp. Niveum” value ([1]; 12.5 mg/L) was 9 (The antibacterial rate of 90˜100% could be set as 9 if the target has totally no growth). The “Fungicidal activity (antibacterial rate grade) Fusarium oxysporum f. sp. Niveum” value ([1]; 25 mg/L) was 9 (The antibacterial rate of 90˜100% could be set as 9 if the target has totally no growth), the “Fungicidal activity (antibacterial rate grade) Fusarium oxysporum f. sp. Niveum” value ([1]; 50 mg/L) was 9 (The antibacterial rate of 90˜100% could be set as 9 if the target has totally no growth) and the “Fungicidal activity (antibacterial rate grade) Fusarium oxysporum f. sp. Niveum” value ([1]; 100 mg/L) was 9 (The antibacterial rate of 90˜100% could be set as 9 if the target has totally no growth). For the same molecule, the “Insecticidal activity (mortality rate grade) Aphiscraccivora” value (“Insecticidal activity” below) (Aphiscraccivora; 125 mg/L test solution) was 0 (mortality rate of 0˜30%), the “Insecticidal activity” value (Aphiscraccivora; 250 mg/L test solution) was 0 (mortality rate of 0˜30%) and the “Insecticidal activity” value (Aphiscraccivora; 500 mg/L test solution) was 0 (mortality rate of 0˜30%). For the same molecule, the “Fungicidal activity (antibacterial rate grade) Corynespora leaf spot of tomato” value (shortened to “Fungicidal activity … of tomato”) ([2]; 12.5 mg/L) was 3 (The antibacterial rate of 0˜30% could be set as 3 if the growth of the target is normal and consistent with that of the blank control), the “Fungicidal activity … of tomato” value ([2]; 25 mg/L) was 3 (The antibacterial rate of 0˜30% could be set as 3 if the growth of the target is normal and consistent with that of the blank control) and the “Fungicidal activity … of tomato” value ([2]; 50 mg/L) was 7 (The antibacterial rate of 70˜90% could be set as 7 if the target has small amounts of growth). For the same molecule, the “Fungicidal activity … of tomato” value ([2]; 100 mg/L) was 7 (The antibacterial rate of 70˜90% could be set as 7 if the target has small amounts of growth), the “Fungicidal activity (antibacterial rate grade) Magnaporthe oryzae” value (Magnaporthe oryzae; 12.5 mg/L) was 9 (The antibacterial rate of 90˜100% could be set as 9 if the target has totally no growth) and the “Fungicidal activity (antibacterial rate grade) Magnaporthe oryzae” value (Magnaporthe oryzae; 25 mg/L) was 9 (The antibacterial rate of 90˜100% could be set as 9 if the target has totally no growth). The “Fungicidal activity (antibacterial rate grade) Magnaporthe oryzae” value (Magnaporthe oryzae; 50 mg/L) was 9 (The antibacterial rate of 90˜100% could be set as 9 if the target has totally no growth), the “Fungicidal activity (antibacterial rate grade) Magnaporthe oryzae” value (Magnaporthe oryzae; 100 mg/L) was 9 (The antibacterial rate of 90˜100% could be set as 9 if the target has totally no growth) and the “Fungicidal activity (antibacterial rate grade) Thanatephorus cucumeris” value (Thanatephorus cucumeris; 12.5 mg/L) was 9 (The antibacterial rate of 90˜100% could be set as 9 if the target has totally no growth). For the same molecule, the “Fungicidal activity (antibacterial rate grade) Thanatephorus cucumeris” value (Thanatephorus cucumeris; 25 mg/L) was 9 (The antibacterial rate of 90˜100% could be set as 9 if the target has totally no growth), the “Fungicidal activity (antibacterial rate grade) Thanatephorus cucumeris” value (Thanatephorus cucumeris; 50 mg/L) was 9 (The antibacterial rate of 90˜100% could be set as 9 if the target has totally no growth) and the “Fungicidal activity (antibacterial rate grade) Thanatephorus cucumeris” value (Thanatephorus cucumeris; 100 mg/L) was 9 (The antibacterial rate of 90˜100% could be set as 9 if the target has totally no growth). The “Fungicidal activity (antibacterial rate grade) Botrytis cinerea” value (Botrytis cinerea; 12.5 mg/L) was 3 (The antibacterial rate of 0˜30% could be set as 3 if the growth of the target is normal and consistent with that of the blank control), the “Fungicidal activity (antibacterial rate grade) Botrytis cinerea” value (Botrytis cinerea; 25 mg/L) was 3 (The antibacterial rate of 0˜30% could be set as 3 if the growth of the target is normal and consistent with that of the blank control) and the “Fungicidal activity (antibacterial rate grade) Botrytis cinerea” value (Botrytis cinerea; 50 mg/L) was 3 (The antibacterial rate of 0˜30% could be set as 3 if the growth of the target is normal and consistent with that of the blank control). For the same molecule, the “Fungicidal activity (antibacterial rate grade) Botrytis cinerea” value (Botrytis cinerea; 100 mg/L) was 3 (The antibacterial rate of 0˜30% could be set as 3 if the growth of the target is normal and consistent with that of the blank control), the “Fungicidal activity (antibacterial rate grade) Pythium aphanidematum” value (Pythium aphanidermatum; 12.5 mg/L) was 3 (The antibacterial rate of 0˜30% could be set as 3 if the growth of the target is normal and consistent with that of the blank control) and the “Fungicidal activity (antibacterial rate grade) Pythium aphanidematum” value (Pythium aphanidermatum; 25 mg/L) was 3 (The antibacterial rate of 0˜30% could be set as 3 if the growth of the target is normal and consistent with that of the blank control). For the same molecule, the “Fungicidal activity (antibacterial rate grade) Pythium aphanidematum” value (Pythium aphanidermatum; 50 mg/L) was 3 (The antibacterial rate of 0˜30% could be set as 3 if the growth of the target is normal and consistent with that of the blank control), the “Fungicidal activity (antibacterial rate grade) Pythium aphanidematum” value (Pythium aphanidermatum; 100 mg/L) was 3 (The antibacterial rate of 0˜30% could be set as 3 if the growth of the target is normal and consistent with that of the blank control) and the mortality at 125 µg/mL (Heliothis armigera; 125 mg/L test solution) was 0 to 30%. For the same molecule, the mortality at 250 µg/mL (Heliothis armigera; 250 mg/L test solution) was 0 to 30%, the mortality at 500 µg/mL (Heliothis armigera; 500 mg/L test solution) was 0 to 30% and the mortality at 125 µg/mL (Plutella xylostella; 125 mg/L test solution) was 0 to 30%. For the same molecule, the mortality at 250 µg/mL (Plutella xylostella; 250 mg/L test solution) was 0 to 30%, the mortality at 500 µg/mL (Plutella xylostella; 500 mg/L test solution) was 0 to 30% and the “Fungicidal activity (antibacterial rate grade) Verticillium dahliae. kieb.” value ([3]; 12.5 mg/L) was 9 (The antibacterial rate of 90˜100% could be set as 9 if the target has totally no growth). For the same molecule, the “Fungicidal activity (antibacterial rate grade) Verticillium dahliae. kieb.” value ([3]; 25 mg/L) was 9 (The antibacterial rate of 90˜100% could be set as 9 if the target has totally no growth), the “Fungicidal activity (antibacterial rate grade) Verticillium dahliae. kieb.” value ([3]; 50 mg/L) was 9 (The antibacterial rate of 90˜100% could be set as 9 if the target has totally no growth) and the “Fungicidal activity (antibacterial rate grade) Verticillium dahliae. kieb.” value ([3]; 100 mg/L) was 9 (The antibacterial rate of 90˜100% could be set as 9 if the target has totally no growth). For the same molecule, the “Fungicidal activity (antibacterial rate grade) Colletotrichum gloeobosporioids” value ([4]; 12.5 mg/L) was 9 (The antibacterial rate of 90˜100% could be set as 9 if the target has totally no growth), the “Fungicidal activity (antibacterial rate grade) Colletotrichum gloeobosporioids” value ([4]; 25 mg/L) was 9 (The antibacterial rate of 90˜100% could be set as 9 if the target has totally no growth) and the “Fungicidal activity (antibacterial rate grade) Colletotrichum gloeobosporioids” value ([4]; 50 mg/L) was 9 (The antibacterial rate of 90˜100% could be set as 9 if the target has totally no growth). The “Fungicidal activity (antibacterial rate grade) Colletotrichum gloeobosporioids” value ([4]; 100 mg/L) was 9 (The antibacterial rate of 90˜100% could be set as 9 if the target has totally no growth), the “Fungicidal activity (antibacterial rate grade) Septoria nodorum Berk.” value (Septoria nodorum Berk.; 12.5 mg/L) was 9 (The antibacterial rate of 90˜100% could be set as 9 if the target has totally no growth) and the “Fungicidal activity (antibacterial rate grade) Septoria nodorum Berk.” value (Septoria nodorum Berk.; 25 mg/L) was 9 (The antibacterial rate of 90˜100% could be set as 9 if the target has totally no growth). The “Fungicidal activity (antibacterial rate grade) Septoria nodorum Berk.” value (Septoria nodorum Berk.; 50 mg/L) was 9 (The antibacterial rate of 90˜100% could be set as 9 if the target has totally no growth), the “Fungicidal activity (antibacterial rate grade) Septoria nodorum Berk.” value (Septoria nodorum Berk.; 100 mg/L) was 9 (The antibacterial rate of 90˜100% could be set as 9 if the target has totally no growth) and the “Fungicidal activity (antibacterial rate grade) Alternaria kikuchiana” value (Alternaria kikuchiana; 12.5 mg/L) was 3 (The antibacterial rate of 0˜30% could be set as 3 if the growth of the target is normal and consistent with that of the blank control). The “Fungicidal activity (antibacterial rate grade) Alternaria kikuchiana” value (Alternaria kikuchiana; 25 mg/L) was 3 (The antibacterial rate of 0˜30% could be set as 3 if the growth of the target is normal and consistent with that of the blank control), the “Fungicidal activity (antibacterial rate grade) Alternaria kikuchiana” value (Alternaria kikuchiana; 50 mg/L) was 3 (The antibacterial rate of 0˜30% could be set as 3 if the growth of the target is normal and consistent with that of the blank control) and the “Fungicidal activity (antibacterial rate grade) Alternaria kikuchiana” value (Alternaria kikuchiana; 100 mg/L) was 3 (The antibacterial rate of 0˜30% could be set as 3 if the growth of the target is normal and consistent with that of the blank control). The “Fungicidal activity (antibacterial rate grade) Fusarium culmorum” value (Fusarium culmorum; 12.5 mg/L) was 9 (The antibacterial rate of 90˜100% could be set as 9 if the target has totally no growth), the “Fungicidal activity (antibacterial rate grade) Fusarium culmorum” value (Fusarium culmorum; 25 mg/L) was 9 (The antibacterial rate of 90˜100% could be set as 9 if the target has totally no growth) and the “Fungicidal activity (antibacterial rate grade) Fusarium culmorum” value (Fusarium culmorum; 50 mg/L) was 9 (The antibacterial rate of 90˜100% could be set as 9 if the target has totally no growth). The “Fungicidal activity (antibacterial rate grade) Fusarium culmorum” value (Fusarium culmorum; 100 mg/L) was 9 (The antibacterial rate of 90˜100% could be set as 9 if the target has totally no growth).

From patent US20250084061A1, “SULFONYL FUNCTIONAL COMPOUND, METHODS AND USES THEREOF” (Hubei Biopesticide Engineering Research Centre, priority 2023, published 2025)
